Where two headings read alike, the source gives them in different places.
Legend:
Experiment in all cases: Post-emergence efficacy, Method A
Assay type in all cases: in vivo
Lolium perenne (LOLPE) = conditions: evaluated after 13 days; for pest or weed control at 500 g/ha: Lolium perenne, post-emergence, 312 h
How it was run: (§1)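 Post-emergence spray on 14-day-old glasshouse plants (24/16 °C day/night, 14 h photoperiod, 65% humidity). Test material was taken up in acetone and IF50 emulsifier mix, then diluted with sodium lauryl ether sulphate (0.25% or 1%) plus 1% ammonium sulphate. Damage was rated 13 days later, 100 = total.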

Setaria faberi (SETFA) = conditions: evaluated after 13 days; for pest or weed control at 500 g/ha: Setaria faberi, post-emergence, 312 h
How it was run: as §1

[1] = test system: Echinochloa crus-galli (ECHCG); conditions: evaluated after 13 days; for pest or weed control at 500 g/ha: Echinochloa crus-galli, post-emergence, 312 h
How it was run: as §1

[2] = test system: Euphorbia heterophylla (EPHHL); conditions: evaluated after 13 days; for pest or weed control at 500 g/ha: Euphorbia heterophylla, post-emergence, 312 h
How it was run: as §1

[3] = test system: Ipomoea hederacea (IPOHE); conditions: evaluated after 13 days; for pest or weed control at 500 g/ha: Ipomoea hederacea, post-emergence, 312 h
How it was run: as §1

[4] = test system: Chenopodium album (CHEAL); conditions: evaluated after 13 days; for pest or weed control at 500 g/ha: Chenopodium album, post-emergence, 312 h
How it was run: as §1

[5] = test system: Amaranthus palmeri (AMAPA); conditions: evaluated after 13 days; for pest or weed control at 500 g/ha: Amaranthus palmeri, post-emergence, 312 h
How it was run: as §1

[6] = test system: Digitaria sanguinalis (DIGSA); conditions: evaluated after 13 days; for pest or weed control at 500 g/ha: Digitaria sanguinalis, post-emergence, 312 h
How it was run: as §1

Eleusine indica (ELEIN) = conditions: evaluated after 13 days; for pest or weed control at 500 g/ha: Eleusine indica, post-emergence, 312 h
How it was run: as §1

[7] = Application Rate 500 g/Ha, Method A, read-out: Control of weed species after post-emergence application, LOLPE (100=total damage to plant; 0=no damage to plant)
[8] = Application Rate 500 g/Ha, Method A, read-out: Control of weed species after post-emergence application, SETFA (100=total damage to plant; 0=no damage to plant)
[9] = Application Rate 500 g/Ha, Method A, read-out: Control of weed species after post-emergence application, ECHCG (100=total damage to plant; 0=no damage to plant)
[10] = Application Rate 500 g/Ha, Method A, read-out: Control of weed species after post-emergence application, EPHHL (100=total damage to plant; 0=no damage to plant)
[11] = Application Rate 500 g/Ha, Method A, read-out: Control of weed species after post-emergence application, IPOHE (100=total damage to plant; 0=no damage to plant)
[12] = Application Rate 500 g/Ha, Method A, read-out: Control of weed species after post-emergence application, CHEAL (100=total damage to plant; 0=no damage to plant)
[13] = Application Rate 500 g/Ha, Method A, read-out: Control of weed species after post-emergence application, AMAPA (100=total damage to plant; 0=no damage to plant)
[14] = Application Rate 500 g/Ha, Method A, read-out: Control of weed species after post-emergence application, DIGSA (100=total damage to plant; 0=no damage to plant)
[15] = Application Rate 500 g/Ha, Method A, read-out: Control of weed species after post-emergence application, ELEIN (100=total damage to plant; 0=no damage to plant)
[16] = Application rate 500 g/Ha, 100=total damage to plant, 0=no damage to plant, read-out: Control of weed species after post-emergence application, LOLPE
[17] = Application rate 500 g/Ha, 100=total damage to plant, 0=no damage to plant, read-out: Control of weed species after post-emergence application, SETFA
[18] = Application rate 500 g/Ha, 100=total damage to plant, 0=no damage to plant, read-out: Control of weed species after post-emergence application, ECHCG
[19] = Application rate 500 g/Ha, 100=total damage to plant, 0=no damage to plant, read-out: Control of weed species after post-emergence application, EPHHL
[20] = Application rate 500 g/Ha, 100=total damage to plant, 0=no damage to plant, read-out: Control of weed species after post-emergence application, IPOHE
[21] = Application rate 500 g/Ha, 100=total damage to plant, 0=no damage to plant, read-out: Control of weed species after post-emergence application, CHEAL
[22] = Application rate 500 g/Ha, 100=total damage to plant, 0=no damage to plant, read-out: Control of weed species after post-emergence application, AMAPA
[23] = Application rate 500 g/Ha, 100=total damage to plant, 0=no damage to plant, read-out: Control of weed species after post-emergence application, DIGSA
[24] = Application rate 500 g/Ha, 100=total damage to plant, 0=no damage to plant, read-out: Control of weed species after post-emergence application, ELEIN
[25] = Application Rate 500 g/Ha, Method A

| SMILES | pest or weed control at 500 g/ha (Lolium perenne (LOLPE); [7]) | pest or weed control at 500 g/ha (Setaria faberi (SETFA); [8]) | pest or weed control at 500 g/ha [1, 9] | pest or weed control at 500 g/ha [2, 10] | pest or weed control at 500 g/ha [3, 11] | pest or weed control at 500 g/ha [4, 12] | pest or weed control at 500 g/ha [5, 13] | pest or weed control at 500 g/ha [6, 14] | pest or weed control at 500 g/ha (Eleusine indica (ELEIN); [15]) | pest or weed control at 500 g/ha (Lolium perenne (LOLPE); [16]) | pest or weed control at 500 g/ha (Setaria faberi (SETFA); [17]) | pest or weed control at 500 g/ha [1, 18] | pest or weed control at 500 g/ha [2, 19] | pest or weed control at 500 g/ha [3, 20] | pest or weed control at 500 g/ha [4, 21] | pest or weed control at 500 g/ha [5, 22] | pest or weed control at 500 g/ha [6, 23] | pest or weed control at 500 g/ha (Eleusine indica (ELEIN); [24]) | also measured |
| --- | --- | --- | --- | --- | --- | --- | --- | --- | --- | --- | --- | --- | --- | --- | --- | --- | --- | --- | --- |
| CN(C)S(=O)(=O)[N-]C(=O)C[n+]1ccc(-c2ncccn2)cn1 [Compound A214, dimethylsulfamoyl-[2-(4-pyrimidin-2-ylpyridazin-1-ium-1-yl)acetyl]azanide] | 80% | 90% | 100% | 100% | 40% | 100% | 100% | 100% | 100% |  |  |  |  |  |  |  |  |  |  |
| COc1cc(OC)nc(-c2cc[n+](CCC(=O)[O-])nc2)n1 [Compound A76] |  |  |  |  |  |  |  |  |  | 30% | 40% | 30% | 30% | 20% | 20% | 30% | 20% | 30% |  |
| COc1cnc(-c2cc[n+](CCCS(=O)(=O)[O-])nc2)cn1 [Compound A78] |  |  |  |  |  |  |  |  |  | 20% | 40% | 30% | 20% | 20% | 10% | 0% | 40% | 30% |  |
| COC(=O)CC[n+]1ccc(-c2ccncc2)cn1 [Compound A203] | 0% | 60% | 50% | 50% | 20% | 90% | 100% | 70% | 60% |  |  |  |  |  |  |  |  |  |  |
| O=S(=O)([O-])CCC[n+]1ccc(-c2ccc(-c3ccc(Cl)nn3)nn2)cn1 [Compound A168] | 10% | 10% | 20% | 30% | 20% | 40% | 0% | 10% | 20% |  |  |  |  |  |  |  |  |  |  |
| COc1nc(-c2cc[n+](CCC(=O)[O-])nc2)ncc1C [Compound A106] |  |  |  |  |  |  |  |  |  | 60% | 60% | 50% | 20% | 10% | 20% | 80% | 60% | 80% |  |
| O=S(=O)([O-])CC[n+]1ccc(-c2ncccc2F)cn1 [Compound A68] |  |  |  |  |  |  |  |  |  | 60% | 60% | 70% | 100% | 50% | 70% | 60% | 40% | 70% |  |
| O=C(O)CC[n+]1ccc(-c2ccccn2)cn1 [Compound A148] |  |  |  |  |  |  |  |  |  | 20% | 50% | 50% | 60% | 20% | 40% | 100% | 50% | 40% |  |
| CN(C)c1cnc(-c2cc[n+](CCC(=O)[O-])nc2)nc1 [Compound A42] |  |  |  |  |  |  |  |  |  | 0% | 50% | 30% | 30% | 20% | 0% | 50% | 50% | 20% |  |
| O=C(O)CC[n+]1ccc(-c2ncc(F)cc2F)cn1 [Compound A144] |  |  |  |  |  |  |  |  |  | 10% | 20% | 20% | 20% | 10% | 10% | 20% | 30% | 20% |  |
| O=S(=O)([O-])CC[n+]1ccc(-c2ncc(F)cc2F)cn1 [Compound A70] |  |  |  |  |  |  |  |  |  | 20% | 30% | 30% | 50% | 20% | 70% | 90% | 30% | 20% |  |
| Nc1nccc(-c2cc[n+](CCC(=O)O)nc2)n1 [Compound A160] | 70% | 90% | 70% | 90% | 70% | 100% | 100% | 70% | 80% |  |  |  |  |  |  |  |  |  |  |
| Cc1c[n+](CCC(=O)O)ncc1-c1ncccn1 [Compound A153] | 0% | 20% | 40% | 40% | 20% | 60% | 90% | 20% | 20% |  |  |  |  |  |  |  |  |  |  |
| COP(=O)(C[n+]1ccc(-c2ccncn2)cn1)OC.O=S(=O)([O-])C(F)(F)F [Compound A237] |  |  |  |  |  |  |  |  |  |  |  |  |  |  |  |  |  |  | Control of weed species after post-emergence application, LOLPE (100=total damage to plant; 0=no damage to plant) (Lolium perenne (LOLPE); [25]): 10; Control of weed species after post-emergence application, SETFA (100=total damage to plant; 0=no damage to plant) (Setaria faberi (SETFA); [25]): 20; Control of weed species after post-emergence application, ECHCG (100=total damage to plant; 0=no damage to plant) [1, 25]: 10; Control of weed species after post-emergence application, EPHHL (100=total damage to plant; 0=no damage to plant) [2, 25]: 0; Control of weed species after post-emergence application, IPOHE (100=total damage to plant; 0=no damage to plant) [3, 25]: 50; Control of weed species after post-emergence application, CHEAL (100=total damage to plant; 0=no damage to plant) [4, 25]: 10; Control of weed species after post-emergence application, AMAPA (100=total damage to plant; 0=no damage to plant) [5, 25]: 60; Control of weed species after post-emergence application, DIGSA (100=total damage to plant; 0=no damage to plant) [6, 25]: 50; Control of weed species after post-emergence application, ELEIN (100=total damage to plant; 0=no damage to plant) (Eleusine indica (ELEIN); [25]): 70 |
| O=C(O)CC[n+]1ccc(-c2ccncc2F)cn1 [Compound A157] | 30% | 80% | 80% | 80% | 60% | 100% | 100% | 70% | 90% |  |  |  |  |  |  |  |  |  |  |

— patent US20220125051A1, “PRE-HARVEST DESICCATION METHOD” (SYNGENTA CROP PROTECTION AG, priority 2019, published 2022)
